Where two headings read alike, the source gives them in different places. Marks after values point to notes of the source that are not given here.
How the values were obtained:
[1] = side effect incidence; cited from earlier work
[2] = system: AMLN-diet induced mice (fatty liver disease/NASH model); type: in vivo; settings: in words
Excerpt: This Example provides the results obtained from an in vivo mouse model of fatty liver disease treatment to investigate the therapeutic effect of DA on the treatment of NASH versus positive control semaglutide (a GLP-1 agonist marketed drug for lowering HbA1c). This study used a positive control semaglutide, a vehicle control, study drug DA and a combination of semaglutide and DA. Mouse strain (B6 mice) was used, and the animals were already adults (23 weeks old) when the study began because the animals were already fed an AMLN diet for 17 weeks prior to the study being initiated. The study dose began at 75 mg/kg BID.
The study included 3 groups of 10 mice each, (A) vehicle control with distilled water by gavage BID, (B) DA by gavage BID, and (C) semaglutide […] sc QD. Body weights and changes were measured 3× per week. Serum metabolic markers (blood glucose, blood insulin, HbA1c, HDL, LDL triglycerides and bile acids) were measured at beginning of dosing (baseline) and end of study. At the end of the study, histopathology of liver samples and serum levels of inflammatory biomarkers (IL-6, TNFα, CK-18 and TGF-β) were evaluated. Histopathology was performed blindly with a scoring scale according to NAFLD Activity Score and Fibrosis Score according to Table 13. Table 14 identifies the kits and equipment used to measure serum parameters.

[3] = cited from earlier work; for percentage of patients in whom NASH resolution was achieved with no worsening of fibrosis: placebo 17%
[4] = cited from earlier work; for TC level change from baseline / LDL level change from baseline: placebo +2%; for HDL level change from baseline: placebo +1%; for Effect on Body Weight (placebo-adjusted change from baseline) / Effect on HbA1c (placebo-adjusted change from baseline) / Effect on Body Weight (placebo-adjusted change from baseline), percent: QD 24-26 weeks
C57BL/6 mice fed on HFD = settings: end of study, cited from earlier work
[5] = in vivo; cited from earlier work
NASH in vivo models [6] = settings: Male C57BL/6J mice fed AMLN diet for 32 weeks, 10 nmol/kg, SC for 12 weeks, cited from earlier work
NASH in vivo models [7] = test: NASH in vivo models, summary and comparison of data from multiple studies (Table 15; first row Aardvark Therapeutics, PCT/US2022/014550); settings: Male C57BL/6 mice fed AMLN diet for 48 weeks; 30 mg/kg, PO, QD for 48 weeks
Excerpt: FIGS. 23 through 33B show data from this Example 6, which is further described above under the heading, Brief Description of the Figures. A summary and comparison of NASH in vivo data from multiple studies is shown below in Table 15. [table] […] This makes it difficult to do direct comparisons of the data. The study corresponding to the first row (called Aardvark Therapeutics) is provided in PCT Patent application PCT/US2022/014550, filed Jan. 31, 2022.

[8] = system: C57Bl/6J mice fed with high-fat diet; settings: vildagliptin 30 mg/kg/day 7 weeks, alogliptin 0.03% (wt/wt) in diet for life span, cited from earlier work
ob/ob mice = settings: cited from earlier work
[9] = semaglutide 3 mg, sitagliptin 100 mg, saxagliptin 2.5 mg, vildagliptin 50 mg, alogliptin 12.5 mg, linagliptin 5 mg
[10] = semaglutide 3 mg, sitagliptin 100 mg, saxagliptin 2.5 mg, vildagliptin 50 mg
[11] = semaglutide 7 mg, sitagliptin 200 mg, saxagliptin 5 mg, vildagliptin 100 mg, alogliptin 25 mg
[12] = semaglutide 7 mg, sitagliptin 200 mg, saxagliptin 5 mg, vildagliptin 100 mg
[13] = semaglutide 14 mg, saxagliptin 10 mg
[14] = exenatide 24 nmol/kg QD IP 4 weeks, dulaglutide 0.6 mg/kg once weekly IP 12 weeks, liraglutide 0.3 mg/kg QD SC 38 days, semaglutide 25 nmol/kg every two days SC 3 weeks
[15] = exenatide 24 nmol/kg QD IP 4 weeks, semaglutide 25 nmol/kg every two days SC 3 weeks
[16] = semaglutide 25 nmol/kg every two days SC 3 weeks
[17] = exenatide 24 nmol/kg QD IP 4 weeks, dulaglutide 0.6 mg/kg once weekly IP 12 weeks, liraglutide 0.3 mg/kg QD SC 38 days
[18] = sitagliptin 0.004% in diet 12 weeks
[19] = vildagliptin 1.9 mg/kg BID 33 days
[20] = vildagliptin 6.3 mg/kg BID 33 days

Molecule: CC[C@H](C)[C@H](NC(=O)[C@H](Cc1ccccc1)NC(=O)[C@H](CC(=O)O)NC(=O)[C@H](CCCNC(=N)N)NC(=O)[C@H](C)NC(=O)[C@H](C)NC(=O)[C@H](CC(C)C)NC(=O)[C@H](CC(N)=O)NC(=O)[C@H](CC(=O)O)NC(=O)[C@H](CC(C)C)NC(=O)[C@@H](NC(=O)[C@@H](NC(=O)[C@H](CC(N)=O)NC(=O)[C@H](CCSC)NC(=O)[C@H](CCC(=O)O)NC(=O)[C@H](CC(=O)O)NC(=O)[C@H](CO)NC(=O)[C@H](Cc1ccccc1)NC(=O)[C@H](CO)NC(=O)CNC(=O)[C@H](CC(=O)O)NC(=O)CNC(=O)[C@@H](N)Cc1c[nH]cn1)[C@@H](C)O)[C@@H](C)CC)C(=O)N[C@@H](CC(N)=O)C(=O)N[C@@H](Cc1c[nH]c2ccccc12)C(=O)N[C@@H](CC(C)C)C(=O)N[C@H](C(=O)N[C@@H](CCC(N)=O)C(=O)N[C@H](C(=O)N[C@@H](CCCCN)C(=O)N[C@H](C(=O)N[C@H](C(=O)N[C@@H](CC(=O)O)C(=O)O)[C@@H](C)O)[C@@H](C)CC)[C@@H](C)O)[C@@H](C)CC [teduglutide]
- injection site reaction [1]: 13%
- intestinal stoma complication [1]: 42%
- upper respiratory tract infection [1]: 21%

Molecule: Semaglutide
- NAFLD Activity Score based on blinded histopathologic review ([2]; 12 weeks, DA 75 then 50 mg/kg BID by gavage, semaglutide 10 mmol/kg sc QD): significantly improved NAFLD Activity Score
- body weight and body weight change ([2]; 12 weeks, DA 75 then 50 mg/kg BID, semaglutide 10 mmol/kg sc QD): remarkable effect on body weight
- HDLs ([2]; end of study): significantly decreased
- LDLs ([2]; end of study): significantly decreased
- TGs ([2]; end of study): significantly decreased
- percentage of patients in whom NASH resolution was achieved with no worsening of fibrosis ([3]; 0.1-mg group): 40%
- percentage of patients in whom NASH resolution was achieved with no worsening of fibrosis ([3]; 0.2-mg group): 36%
- mean percent weight loss ([3]; 0.4-mg group, placebo 1%): 13%
- percentage of patients in whom NASH resolution was achieved with no worsening of fibrosis ([3]; 0.4-mg group): 59%
- incidence of constipation ([3]; human, in vivo): 22%
- incidence of nausea ([3]; human, in vivo): 42%
- incidence of vomiting ([3]; human, in vivo): 15%
- patients with malignant neoplasms ([3]; human, in vivo): 1%
- patients with neoplasms (benign, malignant, or unspecified) ([3]; human, in vivo): 15%
- TC level change from baseline ([4]; oral semaglutide 3 mg, 26-week trial product estimate from another clinical trial): from baseline: −3%
- HDL level change from baseline ([4]; oral semaglutide 3 mg, 26-week): from baseline: 0%
- LDL level change from baseline ([4]; oral semaglutide 3 mg, 26-week): from baseline: −4%
- TG level change from baseline ([4]; oral semaglutide 3 mg, 26-week, placebo −2%): from baseline: −5%
- HDL level change from baseline ([4]; oral semaglutide 7 mg, 26-week): (3 mg), −2%
- LDL level change from baseline ([4]; oral semaglutide 7 mg, 26-week): (3 mg) ^$, −6%
- TC level change from baseline ([4]; oral semaglutide 7 mg, 26-week): (3 mg) ^$$ −5%
- TG level change from baseline ([4]; oral semaglutide 7 mg, 26-week, placebo −2%): (3 mg), −9%
- Effect on Body Weight (placebo-adjusted change from baseline) [4, 9]: 3 mg: −0.2 kg
- Effect on HbA1c (placebo-adjusted change from baseline) [4, 9]: 3 mg: −0.7%
- Effect on Body Weight (placebo-adjusted change from baseline), percent [4, 10]: (−0.23%)
- Effect on Body Weight (placebo-adjusted change from baseline) [4, 11]: 7 mg: −1.0 kg
- Effect on HbA1c (placebo-adjusted change from baseline) [4, 11]: 7 mg: −1.2%
- Effect on Body Weight (placebo-adjusted change from baseline), percent [4, 12]: (−1.1%)
- Effect on Body Weight (placebo-adjusted change from baseline) [4, 13]: 14 mg: −2.6 kg
- Effect on Body Weight (placebo-adjusted change from baseline), percent [4, 13]: (−3.0%)
- Effect on HbA1c (placebo-adjusted change from baseline) [4, 13]: 14 mg: −1.4%
- Control-adjusted Percent Change in Fasting Blood Glucose (C57BL/6 mice fed on HFD; [14]): −12.8%***
- Control-adjusted Percent Change in Lipid Levels: TC (C57BL/6 mice fed on HFD; [15]): TC: −16.7%**
- Control-adjusted Percent Change in Lipid Levels: TG (C57BL/6 mice fed on HFD; [15]): TG: −13.8%**
- Absolute body weight percent change (C57BL/6 mice fed on HFD; [16]): −13.4%^##
- Control-adjusted Percent Change in Lipid Levels: LDL (C57BL/6 mice fed on HFD; [16]): LDL: −9.3%*
- Incidence of Hypoglycemic Episodes for Combination with Insulin (vs. Placebo) [5]: 29.8%*
- Incidence of Hypoglycemic Episodes for Monotherapy at the Highest Dose (vs. Placebo) [5]: 3.8%
- liver TG and total cholesterol levels, plasma ALT level, and liver content of fibrosis markers (NASH in vivo models [6]): Significantly decreased
- liver weight and NAS overall score (NASH in vivo models [6]; significant): decreased liver weight

Molecule: Dulaglutide: fusion protein GLP-1 receptor agonist
- Control-adjusted Percent Change in Insulin Level (C57BL/6 mice fed on HFD; dulaglutide 0.6 mg/kg once weekly IP 12 weeks, liraglutide 0.3 mg/kg QD SC 38 days): −77%*
- Control-adjusted Body Weight Gain (C57BL/6 mice fed on HFD; [17]): -8.1 g
- Control-adjusted Percent Change in Body Weight (C57BL/6 mice fed on HFD; [17]): −15.9%*
- Control-adjusted Percent Change in Fasting Blood Glucose (C57BL/6 mice fed on HFD; [14]): −16.3%*
- Incidence of Hypoglycemic Episodes for Combination with Insulin (vs. Placebo) [5]: 14.7%*
- Incidence of Hypoglycemic Episodes for Combination with Metformin (vs. Placebo) [5]: 0.7%
- Incidence of Hypoglycemic Episodes for Combination with a Sulfonylurea (vs. Placebo) [5]: 3.3%

Molecule: CC(=O)[O-].CC[N+](CC)(CC(=O)Nc1c(C)cccc1C)Cc1ccccc1 [DA or ARD-101]
- serum level of ALT, change (NASH in vivo models [7]): ALT (−43%), AST
- serum level of AST, change (NASH in vivo models [7]): (−9.5%), and bile acid
- serum level of HbAlc, change (NASH in vivo models [7]): −6.7%
- serum level of bile acid, change (NASH in vivo models [7]): (−16.2%)
- serum level of fasting glucose, change (NASH in vivo models [7]): −9%
- serum levels of GLP-1 and GLP-2 (NASH in vivo models [7]): Increased serum levels
- serum levels of inflammatory markers (NASH in vivo models [7]): Lowered serum levels
- steatosis and fibrosis on histopathology (NASH in vivo models [7]): Significantly improved

Molecule: N#C[C@@H]1CCCN1C(=O)CNC12CC3CC(CC(O)(C3)C1)C2 [Vildagliptin]
- Control-adjusted Percent Change in Body Weight Gain [8, 18]: +11%
- Control-adjusted Percent Change in Fasting Blood Glucose [8, 18]: −15.1%*
- Control-adjusted Percent Change in Insulin Level [8, 18]: −33.2%
- Control-adjusted Percent Change in Lipid Levels: TC [8]: −51.5% in TC*
- Control-adjusted Percent Change in Lipid Levels: TG [8]: −23.6% in TG**
- Effect on Body Weight (placebo-adjusted change from baseline) [4, 9]: 50 mg: +0.6 kg
- Effect on HbA1c (placebo-adjusted change from baseline) [4, 9]: 50 mg: −0.7%
- Effect on Body Weight (placebo-adjusted change from baseline), percent [4, 10]: (+0.65%)
- Effect on Body Weight (placebo-adjusted change from baseline) [4, 11]: 100 mg: +1.2 kg
- Effect on HbA1c (placebo-adjusted change from baseline) [4, 11]: 100 mg: −1.1%
- Effect on Body Weight (placebo-adjusted change from baseline), percent [4, 12]: (+1.3%)
- TG level change from baseline ([4]; vildagliptin 50 mg QD 24 weeks, placebo +19%): from baseline: +1%
- TG level change from baseline ([4]; vildagliptin 100 mg QD 24 weeks, placebo +19%): (50 mg) ^$ and +5%
- Other lipid parameters, change ([4]; vildagliptin, all treatment groups, no significant between-treatment differences): changed by <3%
- Control-adjusted Percent Change in Fasting Blood Glucose (ob/ob mice; [19]): −29.4%
- Control-adjusted Percent Change in TG Level (ob/ob mice; [19]): −29.3%
- Control-adjusted Percent Change in Fasting Blood Glucose (ob/ob mice; [20]): −40.2%
- Control-adjusted Percent Change in TG Level (ob/ob mice; [20]): −19.9%
